A short description of data set [1]: Rat liver microsome metabolic stability. The following applies: rat liver microsomes; for half-life at 1 µM: read-out: RLM T1/2. It counts as in vitro ADME. From the text:
Liver microsomes which are subcellular particles derived from endoplasmic reticulum of hepatic cells were used for evaluating the tested compounds. These particles are rich in drug metabolizing enzymes, including the cytochrome p-450 family. Liver microsomes are a recommended test system for various in vitro drug metabolism and pharmacokinetics (DMPK) studies. CLint values lower than […] are considered suitable for drug development.
Liver Microsome Metabolic Stability Assay (NADPH): The liver microsome stability assay was evaluated through pre-incubation with HLMs. A liver microsome mixture (pooled from multiple donors) at a concentration of 0.5 mg/mL, and the test compound at a concentration of 1 μM, were warmed in the presence of a NADPH regenerating system (about 1.0 mM) at 37° C. Positive controls, including testosterone (a CYP3A4 substrate), propafenone (a CYP2D6 substrate), and diclofenac (a CYP2C9) substrate, were concurrently incubated with the HLMs, in the presence of the NADPH regenerating system (1.0 mM). Samples were extracted during incubation at multiple intervals: 0, 5, 15, 30, 45 and 60 minutes. To terminate the reactions, the samples were promptly mixed with cooled acetonitrile that included an internal standard (IS). An additional compound was incubated with the HLMs in the absence of the NADPH regeneration system, from which a sample was taken at the 60-minute interval.
The clearance of the test compound in the samples was subsequently analyzed by LC-MS/MS based on the peak area ratios of the analyte to the IS.
The following equation was used to calculate the microsome clearance: […]
Liver weight: 40 grams/kg, 30 grams/kg, 32 grams/kg, 20 grams/kg and 88 grams/kg, for rat, monkey, dog, human and mouse, respectively.
For orientation: Liver microsomes are a subcellular fraction often used to study metabolism.

The test system of another data set is CYP3A4. Description: CYP inhibition / time-dependent inhibition, CYP3A4_Midazolam. It counts as in vitro ADME, human. The following applies: for TDI related reactive metabolite: Table 11. As to the method:
The time-dependent inactivation potency of the test compound to CYP enzymatic activities was assessed by the pre-incubation of the human liver microsomes with the test compound in the presence and absence of NADPH, followed by the incubation with the discrete marker substrates, as follows.
Pre-incubation with human liver microsomes (HLMs): The TDI inactivation potency on CYP enzymatic activities was evaluated through pre-incubation with HLMs (Corning). A liver microsome mixture at a concentration of 0.1 mg/mL, and the test compound at 8 different concentrations (0, 0.05, 0.165, 0.5, 1.65, 5.0, 16.5, or 50.0 μM) was warmed at 37° C. for 10 minutes. Concurrently, a set of known time-dependent inactivators was also prepared in duplicate for comparison. Following this, NADPH (1.0 mM) was added to one group (Group 1), and an equal volume of potassium phosphate buffer to the second group (Group 2), marking the beginning of a 30-minute pre-incubation at 37° C.
Incubation: After pre-incubation, the marker substrate, or marker substrate plus NADPH was added to the mixture, thereby initiating the incubation. The duration of the incubation was dependent on the type of CYP isoform being evaluated. For example, with the CYP3A isoform, the mixture was incubated over 3 minutes utilizing midazolam as the marker substrate (2.0 μM), verapamil as the standard inactivator (3.5 μM).
Termination of Reaction: Following the incubation, ice-cooled acetonitrile containing the internal standard (IS) was added to halt the reactions. Metabolites generated from the marker substrates were then measured via LC-MS/MS, assessed based on peak area ratios of the analyte to IS.

Data set [2] is described as follows: Plasma protein binding, rat. The format is in vitro ADME. The following applies: read-out: PPB fu (rat). As to the method:
Incubation: Test compounds or the positive control warfarin were introduced into 10% plasma samples (Sourced from WuXi DMPK labs or from commercial vendors) to a concentration of 2 μM. A portion of 150 μL of the compound-containing plasma sample was added to one chamber of a 96-well equilibrium HTD dialysis plate. An equal volume of dialysis buffer was added to the corresponding chamber. A plasma sample was also taken before the incubation and designated as the T0 sample, serving for recovery calculation. The plate was incubated in a humidified 5% CO2 incubator at 37° C. for 4 hours. Each incubation was set up in triplicate.
Sample extraction and preparation: Following the incubation period, samples of 50 μL were drawn from both the plasma side and the buffer side and each was mixed with an equal volume of blank plasma. All matrix-matched samples were quenched using a stop solution containing an internal standard (IS).
Sample Analysis: The samples were subsequently analyzed by LC-MS/MS. The concentrations of the test compound in plasma and buffer samples were quantified based on the peak area ratio of analyte to the internal standard, with no requirement for a standard curve.

This note sets out measurements from patent US20260327211A1, “MODULATORS OF A POTASSIUM CHANNEL AND OF TRPV1 CHANNEL AND USES THEREOF” (Bsense Bio Therapeutics Ltd., priority 2023, published 2026).

For the molecule `O=C(Cc1nccc(-n2cc(Cl)c3cc(Cl)cc(Cl)c32)n1)NC1COCC1O` (centres unmarked) [Compound 760], the half-life at 1 µM in data set [1] is 11.9 min. Also, the “TDI related reactive metabolite” value with CYP3A4 is recorded as “No”. Also, in the data set with CYP3A4 (role: inhibitor, up to 20 micromolar), the “CYP inhibition / TDI, all CYPs of Table 9” value is “did not show significant CYP inhibition or time-dependent inhibition (TDI)”.
With `CC(C)c1cc(Cl)cc(Cl)c1Nc1ccc(F)c(CC(=O)NCC(C)(C)O)c1` [NH91, reference compound], the half-life at 1 µM in data set [1] turned out to be 2.5 min.
Broadly, the CLint scaled is the rate of metabolic loss divided by the concentration. Lower therefore signals slow turnover. Take `O=C(Cc1cc(-n2cc(Cl)c3cc(Cl)cc(Cl)c32)ccc1F)NCCO` [Compound 627]: in data set [1], the CLint scaled at 1 µM came out at 63.5 mL/min/kg and the half-life at 1 µM stood at 39.3 min. In addition, the fraction unbound at 4 h, 2 µM in data set [2] amounted to 0.0004. Besides, the “TDI related reactive metabolite” value in the data set with CYP3A4 is given as “Yes”.
Regarding `O=C(Cc1ccnc(-n2cc(Cl)c3cc(Cl)cc(Cl)c32)n1)N[C@@H]1COC[C@H]1O` [Compound 820], the “CYP-TDI (midazolam), (−)NADPH/(+)NADPH Ratio CYP3A4” value in the data set with CYP3A4 (role: inhibitor, substrate midazolam 2.0 μM, CYP TDI ratio) is under 0.9.
Turning to `Cc1cn(-c2ccc(F)c(CC(=O)NCC(C)(C)O)c2)c2c(Cl)cc(Cl)cc12` [Compound 421], in data set [1], the CLint scaled at 1 µM was found to be 177 mL/min/kg and the half-life at 1 µM worked out at 14.1 min. Further, the fraction unbound at 4 h, 2 µM in data set [2] amounted to 0.0004. Further, the “TDI related reactive metabolite” value in the data set with CYP3A4 is reported as “Yes”.
For `O=C(Cc1cncc(-n2cc(Cl)c3cc(Cl)cc(Cl)c32)c1)N[C@@H]1COC[C@H]1O` [Compound 661], in data set [1], the CLint scaled at 1 µM came out at 527 mL/min/kg and the half-life at 1 µM came to 4.7 min. Further, the fraction unbound at 4 h, 2 µM in data set [2] turned out to be 0.0029. Further, in the data set with CYP3A4, the “TDI related reactive metabolite” value is listed as “Yes”.
